# Experimental data published in paper PMC11481179, “Development and Application of Reversible and Irreversible Covalent Probes for Human and Mouse Cathepsin‐K Activity Detection, Revealing Nuclear Activity” (Advanced Science, 2024).
# Experiments:
# Assay in all cases: Recombinant cathepsin inhibition, residual activity labeled by pan cathepsin probe GB123, in-gel fluorescence
# Type in all cases: biochemical
# CTSL = CTSL (Homo sapiens, UniProt P07711); settings: even at 10 µM
# Experimental: (§1) Figure 1 In vitro evaluation of CTSK targeted compounds. a) Labeling of recombinant cathepsins by ABPs. Recombinant cathepsins were treated with increasing concentrations of ABPs for 1 h. Samples were separated by SDS‐PAGE and scanned for fluorescence by a Typhoon scanner at 635/670 nm. All probes show dose‐dependent binding to the CTSK, and have lower affinity to CTSS except GD36, b) CTSK [0.5–280 ng] was labeled with the indicated ABPs [5 µM]. Incubations were performed for 1 h at 37 °C, at pH 5.5. Samples were analyzed as described in (a). c) Recombinant cathepsins B, K, L, and S [0.5 µM] were first treated with the indicated concentrations of the inhibitor GD30 or vehicle for 1 h followed by incubation with a pan cathepsin probe GB123 [1 µM] for 1 h. Samples were analyzed as described in (a). d) Quantitative analysis of CTSK inhibition by GD30 presented in (d), data represent mean values ± standard error, n = 3. e) IC50 plot of GD30 inhibition of CTSK activity.
# (§2) To further evaluate the probes for their selectivity, we applied a potent and selective covalent inhibitor, Compound 6 (GD30); the inhibitor was generated as a precursor of GD32 and GD36. GD30 was evaluated for its ability to block cathepsin activities by preincubating it with each recombinant enzyme before labeling it by a pan cathepsin ABP, GB123. […]
# (§3) Recombinant cathepsin inhibition: Recombinant human CTSL, CTSB, CTSK, and CTSS (0.5 µM) were pretreated with different concentrations of inhibitors (GD30, ODN) for 1 h in reaction buffer (50 mM acetate, 4 mM DTT and 5 mM MgCl2, pH 5.5) at 37 °C. GB123, 1 µM, was added, and incubated with samples for 1 h at 37 °C. The reaction was stopped by the addition of sample buffer 4x (40% glycerol, 0.2 M Tris/HCl pH 6.8, 20% beta-mercaptoethanol, 12% SDS, and 0.4 mg/ml bromophenol blue). Samples were then boiled at 95 °C for 2 mins, separated on a 12.5% SDS gel, and scanned for fluorescence by a Typhoon scanner FLA 9500 at excitation/emission wavelengths of 635/670 nm.
# (§4) Recombinant cathepsin labeling: Recombinant human CTSL, CTSB, CTSK, and CTSS (0.5 µM) were pretreated with different concentrations of probes (GD32, GD36, GD37, or GD42)
# CTSK = molecular target: T1, CTSK (Homo sapiens, UniProt P43235); settings: CTSK 0.5 µM, 1 h preincubation, then GB123 1 µM 1 h, pH 5.5
# T1 sequence (P43235 115-329): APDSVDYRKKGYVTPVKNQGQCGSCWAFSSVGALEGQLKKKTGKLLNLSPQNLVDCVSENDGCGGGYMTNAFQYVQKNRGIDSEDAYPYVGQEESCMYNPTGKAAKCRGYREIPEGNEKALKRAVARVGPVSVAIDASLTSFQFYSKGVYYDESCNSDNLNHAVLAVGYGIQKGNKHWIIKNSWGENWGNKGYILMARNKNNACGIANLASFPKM
# Experimental: as §1, §2, §3, §4
# CTSS = CTSS (Homo sapiens, UniProt P25774); settings: even at 10 µM
# Experimental: as §1, §2, §3, §4
# CTSS, sequence (P25774 115-331): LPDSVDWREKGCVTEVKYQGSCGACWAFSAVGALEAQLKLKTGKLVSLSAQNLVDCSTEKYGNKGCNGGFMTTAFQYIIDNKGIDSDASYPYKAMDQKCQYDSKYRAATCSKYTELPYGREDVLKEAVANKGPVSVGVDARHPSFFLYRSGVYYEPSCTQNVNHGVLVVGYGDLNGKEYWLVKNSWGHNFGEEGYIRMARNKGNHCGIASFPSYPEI
# CTSL, sequence (P07711 114-333): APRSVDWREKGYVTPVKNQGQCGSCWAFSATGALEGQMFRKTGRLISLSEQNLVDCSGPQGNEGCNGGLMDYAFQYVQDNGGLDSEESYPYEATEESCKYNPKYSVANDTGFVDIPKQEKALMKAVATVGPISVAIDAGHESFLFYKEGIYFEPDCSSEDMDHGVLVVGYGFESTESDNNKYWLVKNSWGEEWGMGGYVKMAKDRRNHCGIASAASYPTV
smiles,measurement,setting,value
C#CCNC(=O)[C@H](CC(C)C)N[C@@H](c1ccc(-c2ccc(S(=O)(=O)CCNC(=O)OC(C)(C)C)cc2)cc1)C(F)(F)F [GD30],inhibition of recombinant cathepsin,CTSL,not inhibiting
same,IC50,CTSK,561 nM
same,inhibition of recombinant cathepsin,CTSS,not inhibiting
